Data published in patent publication US11319526B2, “Methods and compositions for making antibodies and antibody derivatives with reduced core fucosylation” (Seagen Inc., priority 2008, dated 2022).

What was measured:
[1] = system: antibody core fucosylation in CHO DG44 cell line producing h1F6; assay: Effect of fucose analogs on antibody core fucosylation (h1F6 from CHO DG44 culture); assay type: cell-based, Chinese hamster; settings: Cricetulus griseus, CHO-DG44, 120 h, Table 1, day 5; for inhibition at 50 µM: 50 μM fucose analog, inhibition of core fucosylation of h1F6, read-out: Inhibition at 50 μM; for inhibition at 1000 µM: 1 mM fucose analog, ND = non-core fucosylated antibody not detected due to poor antibody production or inhibition of cell growth
Description: Media was supplemented with insulin like growth factor (IGF), penicillin, streptomycin and either 1 mM or 50 μM of the fucose analog (prepared as described supra). On day 5 post inoculation, the culture was centrifuged at 13000 RPM for 5 minutes to pellet cells; antibodies were then purified from supernatant.
(§1) Antibody purification was performed by applying the conditioned media to protein A resin pre-equilibrated with 1× phosphate buffered saline (PBS), pH 7.4. After washing resin with 20 resin bed volumes of 1×PBS, antibodies were eluted with 5 resin bed volumes of Immunopure IgG elution buffer (Pierce Biotechnology, Rockford, Ill.). A 10% volume of 1M tris pH 8.0 was added to neutralize the eluted fraction.

[2] = system: core fucosylation of h1F6 in CHO DG44 cell line; assay: Capillary electrophoresis of oligosaccharides of h1F6 expressed in the presence of alkynyl fucose peracetate; assay type: cell-based, Chinese hamster; settings: h1F6 expressed with 50 μM alkynyl fucose peracetate; β-galactosidase treated sample (FIG. 1C)
Description: To determine the effect of alkynyl fucose peracetate on glycosylation of antibodies, a CHO DG44 cell line expressing a humanized IgG1 anti-CD70 monoclonal antibody, h1F6 (see International Patent Publication WO 06/113909) was cultured at 3.0×10^5 cells per mL in 30 mLs of CHO culture media at 37°, 5% CO2, by shaking at 100 RPM in 125 mL shake flasks. The CHO culture media was supplemented with insulin like growth factor (IGF), penicillin, streptomycin and either 50 or 100 μM alkynyl fucose peracetate (prepared as described in Example 1). […]
To further characterize the glycans on the h1F6 antibodies from Example 3, capillary electrophoresis was performed. […] Labeled oligosaccharides were diluted with water and analyzed by capillary electrophoresis using a Beckman Coulter PA-800 in a N-CHO coated capillary (Beckman Coulter). […] Labeled oligosaccharides were detected using laser induced fluorescence (LFI) with an excitation wavelength of 488λ. Emission fluorescence was detected at 520λ.
Samples of the antibodies were also treated with β-galactosidase to remove galactose. […] Labeled oligosaccharides were diluted with water and analyzed by capillary electrophoresis using a Beckman Coulter PA-800, in a N-CHO coated capillary (Beckman Coulter) running in 40 mM EACA, 0.2% HPMC at pH 4.5. […] Labeled oligosaccharides were detected using laser induced fluorescence (LFI) with an excitation wavelength of 488λ. […]

[3] = system: BALB/C mouse spleen cell and SP2/0 mouse myeloma cell fusion expressing a murine anti-Liv-1 antibody; assay: Antibody core fucosylation in hybridoma, BALB/C-SP2/0 fusion; assay type: cell-based; settings: 50 μM in Hybridoma Serum Free Media
Description: Three antibody expressing hybridoma lines were tested to determine the effect of alkynyl fucose peracetate on antibody core fucosylation from these cell lines. These hybridomas were: 1) a BALB/C mouse spleen cell and a P2X63-AG 8.653 mouse myeloma cell fusion expressing the chimeric anti-ley antigen antibody BR96; 2) a BALB/C mouse spleen cell and a NS0 mouse myeloma cell fusion expressing a murine anti-Liv1 antibody; and 3) a BALB/C mouse spleen cell and a SP2/0mouse myeloma cell fusion expressing a murine anti-Liv-1 antibody. These hybridomas were cultured at 3.0×10^5 cells per mL in 30 mLs of Hybridoma Serum Free Media (Invitrogen, Carlsbad Calif.) supplemented with 50 μM alkynyl fucose peracetate at 37° C., 5% CO2 and shaking at 100 RPM in a 125 mL shake flask. Cultures were fed on day 3 with 2% volume of a feed media. On day four, the culture was split 1:4 into fresh culture media. Cultures were fed with a 6% volume of feed media on days 5, 7, 9 and 10. Conditioned media was collected when the viability of the culture dropped below 60% or on day 13 by passing culture through a 0.2 μm filter.
Antibody purification was performed by applying the conditioned media to a protein A column pre-equilibrated with 1× phosphate buffered saline (PBS), pH 7.4. […]

[4] = system: CHO DG44 cell line producing h1F6; assay: Non-core fucosylated antibody production in different culture media; assay type: cell-based, Chinese hamster; settings: 50 μM; PowerCHO versus OptiCHO media, day 5
Description: To determine the effect of different culture media on non-core fucosylated antibody production, a CHO DG44 cell line producing a humanized IgG1 anti-CD70 monoclonal antibody, h1F6 (see International Patent Publication WO 06/113909), was cultured in various media. The cells (7.5×10^5 cells per mL in 2 mLs) were cultured in PowerCHO (Lonza Group Ltd., Basil, Switzerland) or OptiCHO (Invitrogen, Carlsbad, Calif.) media CHO culture media at 37°, 5% CO2 and shaking at 100 RPM in a 6 well tissue culture plate. Media was supplemented with insulin like growth factor (IGF), penicillin, streptomycin and 50 μM alkynyl fucose peracetate. On day 5 post-inoculation, the culture was centrifuged at 13000 RPM for 5 minutes to pellet cells; antibodies were then purified from supernatant.
as §1, with “fraction. Production of non-core fucosylated antibody was determined as described in Example 7. The proportion of non-core fucosylated to core fucosylated antibody produced from each media was similar.” for “fraction.”

[5] = system: CHO DG44 cell line producing h1F6; assay: Incorporation of fucose analogs into antibodies (h1F6 from CHO DG44 culture); assay type: cell-based, Chinese hamster
Description: The effects of fucose analogs on antibody core fucosylation were tested at concentrations of […] and 1 mM as follows: A CHO DG44 cell line producing a humanized IgG1 anti-CD70 monoclonal antibody, h1F6 (see International Patent Publication WO 06/113909) was cultured at 7.5×10^5 cells per mL in 2 mLs of CHO culture media at 37°, 5% CO2 and shaking at 100 RPM in a 6 well tissue culture plate. Media was supplemented with insulin like growth factor (IGF), penicillin, streptomycin and either 1 mM or 50 μM of the fucose analog (prepared as described supra). On day 5 post inoculation, the culture was centrifuged at 13000 RPM for 5 minutes to pellet cells; antibodies were then purified from supernatant.
as §1, with “fraction. The amount of non-core fucosylated antibody produced was determined as described in Example 7.” for “fraction.”
Certain other fucose analogs were tested for their ability to be incorporated into antibodies. These fucose analogs were tested at concentrations of 50 μM and 1 mM using the methodology as described above and in Example 7.

Q: How did the inhibition at 50 µM [1] turn out when `C#CC(OC(C)=O)[C@@H](OC(C)=O)[C@@H](OC(C)=O)[C@@H](C=O)OC(C)=O` (stereo partly shown) [Alkynyl fucose peracetate, 5-ethynylarabinose tetraacetate] was run?
A: > 80%

Q: What about the inhibition at 1000 µM [1] of the same compound?
A: > 80%

Q: And the oligosaccharide core fucosylated [2]?
A: 6%

Q: And the oligosaccharide non-core fucosylated [2]?
A: approximately 85%

Q: What about the core fucosylation [3] of the same compound?
A: inhibited

Q: And the “proportion of non-core fucosylated to core fucosylated antibody produced from each media” value [4]?
A: similar

Q: `CC(=O)O[C@H]([C@H](OC(C)=O)[C@H](CBr)OC(C)=O)[C@@H](C=O)OC(C)=O` [6-bromo-fucose tetraacetate, 6-bromofucose tetraacetate] was tested. Which inhibition at 50 µM [1] did it give?
A: 50%

Q: What about the inhibition at 1000 µM [1] of the same compound?
A: 80%

Q: What about the “% Incorporation” value ([5]; 50 uM) of the same compound?
A: ~50%

Q: And the “% Incorporation” value ([5]; 1 mM)?
A: (50 uM; 20% at 1 mM)
